{"source": "patent US11739087B2", "about": "“Inhibiting (α-v)(β-6) integrin” (Morphic Therapeutic, Inc., priority 2018, dated 2023)", "key": {"[1]": {"assay": "MDCK permeability assay, wild type MDCK cells with no inhibitor (A→B)", "assay_type": "in vitro ADME, Canine", "settings": "dog, no Pgp inhibitor, apical to basolateral", "method": "(§1) Compounds were tested for permeability in an MDCK permeability assay. This assay measures the ability of compounds to cross a layer of Madin-Darby Canine Kidney (MDCK) cells from the apical to basolateral side (A→B). This measurement is predictive of the ability of compounds to be absorbed in the gut following oral dosing, an essential characteristic of an orally administered small molecule integrin inhibitor drug.\n(§2) The assay is run in two formats. One uses wild type MDCK cells with no inhibitor. This method works well in determining the passive permeability of compounds with low efflux by P-glyocprotein (Pgp), and was used to assess permeability of a Reference Compound having the chemical formula shown below.\n(§3) Cell Culture and Maintenance: • Cell stock cultures (MDCK or MDCK MDR1) are maintained in MEM+10% FBS+1% NEAA, grown in 75 cm^2 tissue culture treated flasks and split (passed) 2 times weekly to maintain desired confluence. • For maintenance passage: trypsinized cells are routinely distributed into new flasks at a standard passage ratio of 1:20.\n(§4) Seeding assay plates: MDCK assay plates are seeded with MDCK or MDCK MCR1 cells 3-4 days prior to running the assay. 24-well plates are seeded at a cell density of 0.88×10^5/well in a 400 μL apical chamber volume (2.2×10^5/mL) with a […] volume of growth medium to the 24-well basal chamber. […]"}, "[2]": {"test_system": "Madin-Darby Canine Kidney (MDCK) cells", "assay": "MDCK permeability assay, wild type MDCK cells with no inhibitor (A→B)", "assay_type": "in vitro ADME", "settings": "no Pgp inhibitor, apical to basolateral", "method": "as §1, §2, §3, §4"}}, "data": [{"smiles": "O=C(O)CN1CCC(C(=O)N2CCC(c3ccc4c(n3)NCCC4)CC2)CC1", "note": "[Reference Compound]", "values": [{"measurement": "Papp A→B at 90 min, 5 μM", "setting": "[1]", "result": "< 2.3", "unit": "nm/s"}, {"measurement": "MDCK (A −> B)", "setting": "[2]", "result": "less than 0.23"}]}]}
